Source: patent US6486146B1, “Cancer accelerants and phase synchronization methods” (priority 2000, dated 2002)
Like-named read-outs stand apart in the source and are kept apart here.

Experiments:
[1] = tested on: gastrointestinal epithelial cells; assay: Expected kill of gastrointestinal epithelium from terminal half life versus cell cycle time
colon cancer = settings: cited from earlier work
colon cancer tumor = assay: Mathematical model of tumor size until lethal burden using 32% kill rate; settings: at both doses (125 mg and 100 mg), inferred from fit of the model to observed survival
topoisomerase I = biological target: T1, topoisomerase I (Homo sapiens, UniProt P11387); settings: SN-38 versus irinotecan; cited from earlier work
T1 sequence (P11387 1-765): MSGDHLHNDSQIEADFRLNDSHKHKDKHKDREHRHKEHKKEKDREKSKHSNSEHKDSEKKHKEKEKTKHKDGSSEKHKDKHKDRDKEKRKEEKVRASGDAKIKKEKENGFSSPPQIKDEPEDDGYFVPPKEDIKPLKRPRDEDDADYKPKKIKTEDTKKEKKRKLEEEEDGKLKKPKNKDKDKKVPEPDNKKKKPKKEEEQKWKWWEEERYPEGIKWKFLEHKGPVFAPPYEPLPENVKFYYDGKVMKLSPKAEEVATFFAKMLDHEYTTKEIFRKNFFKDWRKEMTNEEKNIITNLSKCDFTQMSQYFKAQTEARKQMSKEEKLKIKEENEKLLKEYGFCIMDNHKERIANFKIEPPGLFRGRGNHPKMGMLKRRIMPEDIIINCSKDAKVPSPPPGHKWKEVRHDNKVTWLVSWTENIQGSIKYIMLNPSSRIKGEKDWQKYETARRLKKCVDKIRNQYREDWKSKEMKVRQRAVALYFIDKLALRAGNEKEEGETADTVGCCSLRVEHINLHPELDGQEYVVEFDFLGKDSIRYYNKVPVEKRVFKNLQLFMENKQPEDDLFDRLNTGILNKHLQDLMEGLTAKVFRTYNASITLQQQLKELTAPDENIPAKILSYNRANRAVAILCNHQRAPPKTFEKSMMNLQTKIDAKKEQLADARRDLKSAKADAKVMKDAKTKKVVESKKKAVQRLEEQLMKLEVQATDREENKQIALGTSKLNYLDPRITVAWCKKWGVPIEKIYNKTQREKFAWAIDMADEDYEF

[2] = tested on: metastatic breast cancer that possesses estrogen receptors; assay: Example 4 patient, prior art doxorubicin regimen, tumor size; type: in vivo; settings: 30 mg/m2 once per week for 4 weeks, 3 cycles; illustrative patient example

Q: For `CCc1c2c(nc3ccc(OC(=O)N4CCC(N5CCCCC5)CC4)cc13)-c1cc3c(c(=O)n1C2)COC(=O)[C@]3(O)CC` [Camptosar, irinotecan], which “mortality to gastrointestinal epithelium” value ([1]; present invention LD 60) is on record?
A: Its value is 65%.

Q: And the gastrointestinal epithelium killed ([1]; prior art LD 125 mg)?
A: The gastrointestinal epithelium killed was 95%.

Q: What about the median survival observed (colon cancer; 100 mg once every 7 days for 4 weeks, 2 weeks off, 2 cycles, months x 30 days) of the same compound?
A: The median survival observed was 279 days.

Q: And the median survival observed (colon cancer; 100 mg regimen)?
A: Its median survival observed is 9.3 mo.

Q: And the median survival observed (colon cancer; 125 mg once every 7 days for 4 weeks, 2 weeks off, 3 cycles, months x 30 days)?
A: Its median survival observed is 321 days.

Q: And the median survival observed (colon cancer; 125 mg regimen)?
A: The median survival observed was 10.7 mo.

Q: What about the S-Phase kill rate (colon cancer tumor) of the same compound?
A: The S-Phase kill rate was about 100%.

Q: Which “potency as a topoisomerase inhibitor relative to irinotecan” value (topoisomerase I) does the source give for `CCc1c2c(nc3ccc(O)cc13)-c1cc3c(c(=O)n1C2)COC(=O)[C@]3(O)CC` [SN-38] here?
A: Its value is ~1,000 times.

Q: Which “reduction in tumor size after the regimen” value [2] does the source give for `COc1cccc2c1C(=O)c1c(O)c3c(c(O)c1C2=O)C[C@@](O)(C(=O)CO)C[C@@H]3O[C@H]1C[C@H](N)[C@H](O)[C@H](C)O1` [doxorubicin] here?
A: The value was 32%.
